Molecular target: TPK enzyme (Homo sapiens (Human), UniProt Q9H3S4)
Assay: TPK enzyme activity test
Type: biochemical
Conditions: for Emax: calculated with the effect of DMSO on TPK enzyme activity as 100%, read-out: Emax

Sequence of TPK enzyme (Q9H3S4 whole entry): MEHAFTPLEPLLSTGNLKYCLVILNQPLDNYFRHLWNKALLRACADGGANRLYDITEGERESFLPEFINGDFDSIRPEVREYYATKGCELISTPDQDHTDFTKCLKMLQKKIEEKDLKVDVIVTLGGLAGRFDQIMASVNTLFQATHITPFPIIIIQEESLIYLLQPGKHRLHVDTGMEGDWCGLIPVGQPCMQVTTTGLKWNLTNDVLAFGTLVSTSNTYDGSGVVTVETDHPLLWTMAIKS

Row | Emax | SMILES | EC50 (promoting effect on TPK enzyme activity)
1 | 168% | Cc1ccc2[nH]c3c(=O)n(CCC(=O)NCCCc4cccc(C(F)(F)F)c4)cnc3c2c1 [Compound 69, 3-(8-methyl-4-oxo-4,5-dihydro-3H-pyrimido[5,4-b]indol-3-yl)-N-(3-(3-(trifluoromethyl)phenyl)propyl)propanamide] | –
2 | 147% | O=C(Cn1cnc2c(oc3ccccc32)c1=O)N1CCN(c2cccc(C(F)(F)F)c2)CC1 [Compound 58] | –

Row | SMILES | Emax | EC50 (promoting effect on TPK enzyme activity)
3 | COc1ccc2[nH]c(=O)c3c(ccn3CCCN3CCN(c4cccc(C(F)(F)F)c4)CC3)c2c1 [Compound 210, 8-methoxy-3-(3-(4-(3-(trifluoromethyl)phenyl)piperazin-1-yl)propyl)-3,5-dihydro-4H-pyrrolo[2,3-c]quinolin-4-one] | 166% | 1800 nM
